Measurements from PubChem BioAssay (NCI).
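Compound exposure: 48 hours, 5 concentrations, 96-well plates. GI50 is the concentration that inhibits growth by half. TGI is the concentration that stops growth completely.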

Legend:
Assay in all cases: inhibition of tumour cell growth, NCI panel, 48 h
[1] = tested on: 786-0 renal
[2] = tested on: A498 renal
[3] = tested on: A549 NSCLC
[4] = tested on: ACHN renal
[5] = tested on: BT-549 breast
[6] = tested on: CAKI-1 renal
[7] = tested on: CCRF-CEM leukemia
[8] = tested on: COLO 205 colon
[9] = tested on: DU-145 prostate
[10] = tested on: EKVX NSCLC
[11] = tested on: HCC-2998 colon
[12] = tested on: HCT-116 colon
[13] = tested on: HCT-15 colon
[14] = tested on: HOP-62 NSCLC
[15] = tested on: HS 578T breast
[16] = tested on: HT29 colon
[17] = tested on: IGROV1 ovarian
[18] = tested on: K-562 leukemia
[19] = tested on: KM12 colon
[20] = tested on: LOX IMVI melanoma
[21] = tested on: M14 melanoma
[22] = tested on: MALME-3M melanoma
[23] = tested on: MCF7 breast
[24] = tested on: MDA-MB-231 breast
[25] = tested on: MDA-MB-435
[26] = tested on: MOLT-4 leukemia
[27] = tested on: NCI-H226 lung
[28] = tested on: NCI-H23 lung
[29] = tested on: NCI-H460 lung
[30] = tested on: NCI-H522 lung
[31] = tested on: NCI/ADR-RES ovarian
[32] = tested on: OVCAR-3 ovarian
[33] = tested on: OVCAR-4 ovarian
[34] = tested on: OVCAR-5 ovarian
[35] = tested on: OVCAR-8 ovarian
[36] = tested on: PC-3 prostate
[37] = tested on: RPMI-8226 leukemia
[38] = tested on: RXF 393 renal
[39] = tested on: SF-268 CNS
[40] = tested on: SF-295 CNS
[41] = tested on: SF-539 CNS
[42] = tested on: SK-MEL-2 melanoma
[43] = tested on: SK-MEL-28 melanoma
[44] = tested on: SK-MEL-5 melanoma
[45] = tested on: SK-OV-3 ovarian
[46] = tested on: SN12C renal
[47] = tested on: SNB-19 CNS
[48] = tested on: SNB-75 CNS
[49] = tested on: SR leukemia
[50] = tested on: SW-620 colon
[51] = tested on: T-47D breast
[52] = tested on: TK-10 renal
[53] = tested on: U251 CNS
[54] = tested on: UACC-257 melanoma
[55] = tested on: UACC-62 melanoma
[56] = tested on: UO-31 renal
[57] = tested on: HL-60(TB) leukemia
[58] = tested on: HOP-92 NSCLC

O=[N+]([O-])C(C(Cl)=C(Cl)Cl)=C(n1cncn1)n1cncn1
TGI [1]: 45.4 µM
TGI [2]: > 100 µM
TGI [3]: > 100 µM
TGI [4]: 37.5 µM
TGI [5]: 36 µM
TGI [6]: 11.4 µM
TGI [7]: 22 µM
TGI [8]: 26.7 µM
TGI [9]: 31.6 µM
TGI [10]: 59.9 µM
TGI [11]: 98.1 µM
TGI [12]: 31.9 µM
TGI [13]: 36.7 µM
TGI [14]: > 100 µM
TGI [15]: > 64.1 µM
TGI [16]: 39.4 µM
TGI [17]: 39.7 µM
TGI [18]: > 100 µM
TGI [19]: > 100 µM
TGI [20]: 44.9 µM
TGI [21]: > 74.8 µM
TGI [22]: 31.2 µM
TGI [23]: > 100 µM
TGI [24]: 39.3 µM
TGI [25]: > 71.8 µM
TGI [26]: > 100 µM
TGI [27]: > 100 µM
TGI [28]: 54.2 µM
TGI [29]: > 100 µM
TGI [30]: 28.7 µM
TGI [31]: 67 µM
TGI [32]: 38.4 µM
TGI [33]: 57 µM
TGI [34]: 22.9 µM
TGI [35]: 44.2 µM
TGI [36]: > 100 µM
TGI [37]: 51.5 µM
TGI [38]: 43.4 µM
TGI [39]: 35.3 µM
TGI [40]: > 100 µM
TGI [41]: 41.2 µM
TGI [42]: > 100 µM
TGI [43]: > 95.9 µM
TGI [44]: 31.8 µM
TGI [45]: > 100 µM
TGI [46]: 26.9 µM
TGI [47]: > 100 µM
TGI [48]: > 65.3 µM
TGI [49]: > 100 µM
TGI [50]: 43.1 µM
TGI [51]: 51 µM
TGI [52]: > 100 µM
TGI [53]: > 87.1 µM
TGI [54]: > 65.7 µM
TGI [55]: > 100 µM
TGI [56]: 34.9 µM

CC12OC(C(=O)C13CCC3)C1C(=O)c3ccc4c(ccc5ccccc54)c3C(=O)C12 (centres undefined)
GI50 [1]: 3.65 µM
TGI [1]: 8.82 µM
GI50 [2]: 8.74 µM
TGI [2]: 29.6 µM
GI50 [3]: 19.5 µM
TGI [3]: > 100 µM
GI50 [4]: 6.78 µM
TGI [4]: 21.4 µM
GI50 [5]: 18.3 µM
TGI [5]: 48.4 µM
GI50 [6]: 1.42 µM
TGI [6]: 12.7 µM
GI50 [7]: 2.99 µM
TGI [7]: 15.2 µM
GI50 [8]: 11.2 µM
TGI [8]: 33.1 µM
GI50 [10]: 20.7 µM
TGI [10]: 63.7 µM
GI50 [12]: 11.4 µM
TGI [12]: 24.8 µM
GI50 [13]: 4.27 µM
TGI [13]: 22.4 µM
GI50 [57]: 5.15 µM
TGI [57]: 43.7 µM
GI50 [14]: 25.2 µM
TGI [14]: 53.4 µM
GI50 [58]: 5.02 µM
TGI [58]: 21.2 µM
GI50 [15]: 16 µM
TGI [15]: 76.1 µM
GI50 [16]: 3.85 µM
TGI [16]: 19.2 µM
GI50 [17]: 21.4 µM
TGI [17]: > 100 µM
GI50 [18]: 3.27 µM
TGI [18]: 16 µM
GI50 [21]: 14.5 µM
TGI [21]: 45.4 µM
GI50 [22]: 4.2 µM
TGI [22]: 17.2 µM
GI50 [23]: 5.1 µM
TGI [23]: 30.7 µM
GI50 [25]: 12.8 µM
TGI [25]: 30.3 µM
GI50 [26]: 3.67 µM
TGI [26]: 53.6 µM
GI50 [28]: 10.5 µM
TGI [28]: 23.6 µM
GI50 [29]: 12 µM
TGI [29]: 35.9 µM
GI50 [30]: 13 µM
TGI [30]: 35.1 µM
GI50 [31]: 4.45 µM
TGI [31]: 22.8 µM
GI50 [32]: 0.388 µM
TGI [32]: 2.47 µM
GI50 [34]: 17.8 µM
TGI [34]: 33.9 µM
GI50 [35]: 6.49 µM
TGI [35]: > 100 µM
GI50 [36]: 7.61 µM
TGI [36]: 28.8 µM
GI50 [38]: 13.3 µM
TGI [38]: 30.3 µM
GI50 [39]: 11.6 µM
TGI [39]: 32.9 µM
TGI [40]: 0.0612 µM
GI50 [41]: 11.1 µM
TGI [41]: 66.8 µM
GI50 [42]: 19.4 µM
TGI [42]: > 100 µM
GI50 [43]: 36.1 µM
TGI [43]: > 100 µM
GI50 [45]: 26.5 µM
TGI [45]: 80.5 µM
GI50 [46]: 2.72 µM
TGI [46]: 19.6 µM
GI50 [47]: 21.5 µM
TGI [47]: 65.7 µM
GI50 [48]: 18.1 µM
TGI [48]: 37.7 µM
GI50 [51]: 3.22 µM
TGI [51]: 11.2 µM
GI50 [52]: 4.29 µM
TGI [52]: 15 µM
GI50 [53]: 11.5 µM
TGI [53]: 31.9 µM
GI50 [54]: 10.7 µM
TGI [54]: 39.3 µM
GI50 [55]: 35.4 µM
TGI [55]: > 100 µM
GI50 [56]: 25.7 µM
TGI [56]: > 100 µM
